From patent publication US20240189287A1, “PERIPHERALLY RESTRICTED CB1 RECEPTOR BLOCKERS AND USES THEREOF” (BIONANOSIM (BNS) LTD, priority 2021, published 2024)
Where two headings read alike, the source gives them in different places.

What was measured:
[1] = tested on: Salmonella typhimurium (TA98, TA100)
CB1 receptor [2] = target: T1, CB1 receptor (Mus musculus (Mouse), UniProt P47746); test: [35S]GTPγS binding assay for CB1 receptor, mouse brain membranes; format: biochemical; settings: nature of binding: agonist/antagonist/inverse agonist
T1 sequence (P47746 whole entry): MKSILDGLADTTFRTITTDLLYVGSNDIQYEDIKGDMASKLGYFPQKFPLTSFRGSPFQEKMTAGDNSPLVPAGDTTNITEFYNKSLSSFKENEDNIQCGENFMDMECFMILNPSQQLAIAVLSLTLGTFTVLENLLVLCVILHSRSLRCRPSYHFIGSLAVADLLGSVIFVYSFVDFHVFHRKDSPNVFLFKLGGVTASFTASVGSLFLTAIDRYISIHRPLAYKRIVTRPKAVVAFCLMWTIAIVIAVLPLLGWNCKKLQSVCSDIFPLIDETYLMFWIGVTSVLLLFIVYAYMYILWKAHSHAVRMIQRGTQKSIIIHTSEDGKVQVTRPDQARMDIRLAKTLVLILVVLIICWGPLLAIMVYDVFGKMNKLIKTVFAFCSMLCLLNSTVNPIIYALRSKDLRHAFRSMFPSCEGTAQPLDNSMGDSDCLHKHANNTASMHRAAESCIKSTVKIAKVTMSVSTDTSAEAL
Protocol: For CB1 receptor-mouse brains were dissected and P2 membranes prepared and resuspended at ˜2 μg protein/μL in 1 ml assay buffer (50 mM Tris HCl, 9 mM MgCl2, 0.2 mM EDTA, 150 mM NaCl; pH 7.4). Ligand-stimulated [^35S]GTPγS binding was assayed as described previously (Tam et al., JCI 2010). Briefly, membranes (10 μg protein) were incubated in assay buffer containing 100 μM GDP, 0.05 nM [^35S]GTPγS, test compounds at various concentrations (CP55940/Rimonabant as controls and test compounds for BB8 conjugates), and 1.4 mg/mL fatty acid-free BSA in siliconized glass tubes. Membranes with bound ligand ([^35S]GTPγS) were separated from free ligand by vacuum filtration and were analyzed using β counter as described above. Non-specific binding was determined using 10 μM GTPS (cold GTP). Basal binding was assayed in the absence of the tested compound and in the presence of GDP.

CB2 receptor = CB2 receptor (Homo sapiens (Human), UniProt P34972); test: CB2 receptor radioligand binding assay, [3H]CP-55,940 displacement, human kidney membranes; settings: for Ki: read-out: hCB2R Ki
CB2 receptor, sequence (P34972 whole entry): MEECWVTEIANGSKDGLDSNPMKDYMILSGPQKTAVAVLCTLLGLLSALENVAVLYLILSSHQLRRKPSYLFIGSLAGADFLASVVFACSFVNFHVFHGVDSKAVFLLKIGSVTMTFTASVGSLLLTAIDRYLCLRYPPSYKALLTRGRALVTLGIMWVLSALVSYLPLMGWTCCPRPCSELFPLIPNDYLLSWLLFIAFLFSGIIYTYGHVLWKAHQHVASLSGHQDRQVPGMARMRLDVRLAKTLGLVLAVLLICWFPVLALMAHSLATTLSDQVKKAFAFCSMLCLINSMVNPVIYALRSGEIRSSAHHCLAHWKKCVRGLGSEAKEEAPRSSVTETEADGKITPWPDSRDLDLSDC
Protocol: (§1) Radioligand binding assays: Binding affinity was determined by a radioligand binding assay. The different BB8-conjugates binding to CB1 and CB2 receptors was assessed in competition displacement assays using [^3H]CP-55.940 as the radioligand and crude membranes from mouse brain for CB1 receptor and human kidney cells for CB2 receptor.
CB2 receptor binding assay: Human kidney membranes were used as the source material for CB2 receptors. The displacement of specifically bound tritiated CP-55,940 from these membranes using a standard filtration assay was used to determine the Ki values for the test compounds. Briefly, 1.25 μg of protein was incubated for 1.5 h at 30° C. in the presence of 0.5 nM [^3H]CP-55,940 and various concentrations (10^−5M-10^−11M) of test compound/control, final volume of 1 mL. The incubation was terminated by rapid filtration and washing, and the amount of specifically bound [^3H]CP-55,940 was determined. Briefly, membranes with bound [^3H]CP-55,940 were separated and washed from free ligand by vacuum filtration, adsorbing the membrane onto a Whatman glass microfiber filter paper ([…], Cat #1821271). Finally, the Whatman filter paper with adsorbed membranes was cut and placed in scintillation liquid (Ultima Gold) for 1 h at 25° C. followed by a β counter reading of bound [^3H]CP-55,940 radioligand. All data were in triplicates with Ki values determined using GraphPad Prism 7.02 analysis software.

CB1 receptor [3] = target: T1, CB1 receptor; test: CB1 receptor radioligand binding assay, [3H]CP-55,940 displacement, mouse brain membranes; settings: mouse (m) CB1 receptor; read-out: CB1R Ki (nM) (m)
Protocol: as §1
CB1 receptor binding assay: Mouse brain membranes were used as the source material for CB1 receptors. The displacement of specifically bound tritiated CP-55.940 from these membranes using a standard filtration assay was used to determine the Ki values for the test compounds. Briefly. 20 μg of protein was incubated for 1 h at 30° C. in the presence of 0.5 nM [^3H]CP-55,940 and various concentrations (10^−5M-10^−11M) of test compound/control, final volume of 1 mL. The incubation was terminated by rapid filtration and washing, and the amount of specifically bound [^3H]CP-55,940 was determined. Briefly, membranes with bound [^3H]CP-55,940 were separated and washed from free ligand by vacuum filtration, adsorbing the membrane onto a Whatman glass microfiber filter paper ([…], Cat #1821271). Finally, the Whatman filter paper with adsorbed membranes was cut and placed in scintillation liquid (Ultima Gold) for 1 h at 25° C. followed by a β counter reading of bound [^3H]CP-55,940 radioligand. All data were in triplicates with Ki values determined using GraphPad Prism 7.02 analysis software. […] In some cases, membranes from human source were used to determine CB1 receptor binding affinity.

MDR1-MDCKII cells = test: MDR1-MDCK II cell permeation assay (bi-directional permeability, P-gp efflux); format: in vitro ADME
Protocol: (§2) Test and reference compounds were diluted with transport buffer (HBSS with 10 mM Hepes, pH 7.4) from stock solution to a concentration of 2 μM (DMSO<1%) and applied to the apical or basolateral side of the cell monolayer. Permeation of the test compounds from A to B direction or B to A direction was determined in duplicate with/without P-gp inhibitor (GF120918, 10 μM). […] The plate was incubated for 2.5 hours in CO2 incubator at 37±1° C., with 5% CO2 at saturated humidity without shaking. In addition, the efflux ratio of each compound was also determined. Test and reference compounds were quantified by LC-MS/MS analysis based on the peak area ratio of analyte/IS.
(§3) The in vitro bi-directional permeability across MDR1-MDCKII cells including P-glycoprotein (Pgp, ABCB1) efflux in the presence and absence of a P-gp inhibitor is an indicator as to the tendency of an orally administered compound to penetrate the brain.

P-gp (MDR1, ABCB1) = test: as above; format: in vitro ADME; settings: dog; for Papp at 2.5 h, 2 μM: A to B
Protocol: as §2, §3

HepG2 Cells = test: Cell Viability Assay in HepG2 Cells at 72 h; format: cell-based, human; settings: HepG2, 72 h
Protocol: The liver plays a central role in transforming and clearing chemicals, and therefore is susceptible to toxicity of these agents. BNS808, BNS822 and other selected compounds were tested in the HepG2 assay using […] to evaluate cytotoxicity.

[4] = MDCK-MDR1, pH 7.4, with GF120918, 10 μM, efflux ratio in the presence of P-gp inhibitor GF120918, read-out: MDR1 B:A/A:B (+P-gp inhibitor)
[5] = MDCK-MDR1, pH 7.4, efflux ratio, without P-gp inhibitor, read-out: MDR1 B:A/A:B

Row | SMILES | mCB1R GTPγ[^35S] (activity) (CB1 receptor [2]) | Ki (CB2 receptor) [nM] | Ki (CB1 receptor [3]) [nM] | other results
1 | Nc1ccc2cc3ccccc3cc2c1 [2-Aminoanthracene, reference compound] | – | – | – | AMES result (positive/negative) ([1]; TA98, S9 yes): positive; AMES result (positive/negative) ([1]; TA100, S9 yes): positive
2 | O=[N+]([O-])c1ccc2c(c1)Cc1ccccc1-2 [2-Nitroflurene, reference compound] | – | – | – | AMES result (positive/negative) ([1]; TA98, S9 no): positive
3 | O=C(NC1CCCOc2c1nn(-c1ccccc1Cl)c2-c1ccc(Cl)cc1)c1ccccn1 (stereo not drawn) [BNS810, N-[2-(2-chlorophenyl)-3-(4-chlorophenyl)-5,6,7,8-tetrahydrooxepino[3,2-c]pyrazol-8-yl]pyridine-2-carboxamide] | Antagonist | 988 | 64.5 | –
4 | O=C(NC1CCCOc2c1nn(-c1ccccc1Cl)c2-c1ccc(Cl)cc1)c1ccncn1 (stereo not drawn) [BNS811, N-[2-(2-chlorophenyl)-3-(4-chlorophenyl)-5,6,7,8-tetrahydrooxepino[3,2-c]pyrazol-8-yl]pyrimidine-4-carboxamide] | Antagonist | 963 | 65.6 | –
5 | O=C(NC1CCCOc2c1nn(-c1ccccc1Cl)c2-c1ccc(Cl)cc1)c1ccncc1 (stereo not drawn) [BNS812, N-[2-(2-chlorophenyl)-3-(4-chlorophenyl)-5,6,7,8-tetrahydrooxepino[3,2-c]pyrazol-8-yl]pyridine-4-carboxamide] | Antagonist | 1300 | 16.3 | –
6 | CNC(=O)NC1CCCOc2c1nn(-c1ccccc1Cl)c2-c1ccc(Cl)cc1 (stereo not drawn) [BNS813, 1-[2-(2-chlorophenyl)-3-(4-chlorophenyl)-5,6,7,8-tetrahydrooxepino[3,2-c]pyrazol-8-yl]-3-methyl-urea] | – | – | 1130 | –
7 | CS(=O)(=O)N1CCC(C(=O)NC2CCCOc3c2nn(-c2ccccc2Cl)c3-c2ccc(Cl)cc2)CC1 (stereo not drawn) [BNS815, N-[2-(2-chlorophenyl)-3-(4-chlorophenyl)-5,6,7,8-tetrahydrooxepino[3,2-c]pyrazol-8-yl]-1-methylsulfonyl-piperidine-4-carboxamide] | Antagonist | 6310 | 18 | P-gp substrate (MDR1-MDCKII cells): P-gp substrates and Yes; Rank Papp (MDR1-MDCKII cells): High; efflux ratio at 2.5 h, 2 μM (P-gp (MDR1, ABCB1); [4]): 0.63; Papp at 2.5 h, 2 μM (P-gp (MDR1, ABCB1); MDCK-MDR1, pH 7.4): 10.1 ×10⁻⁶ cm/s; IC50 (HepG2 Cells; read-out: Absolute IC50): 55.9 µM
8 | CCOC(=O)N1CCC(C(=O)NC2CCCOc3c2nn(-c2ccccc2Cl)c3-c2ccc(Cl)cc2)CC1 (stereo not drawn) [BNS816, Ethyl-4-((2-(2-chlorophenyl)-3-(4-chlorophenyl)-5,6,7,8-tetrahydro-2H-oxepino[3,2-c]pyrazol-8-yl)carbamoyl)piperidine-1-carboxylate] | Inverse Agonist | 1530 | 8.93 | P-gp substrate (MDR1-MDCKII cells): No; Rank Papp (MDR1-MDCKII cells): High; MDR1 B:A/A:B (MDR1-MDCKII cells; efflux ratio, without P-gp inhibitor): 0.77; efflux ratio at 2.5 h, 2 μM (P-gp (MDR1, ABCB1); [4]): 0.61; Papp at 2.5 h, 2 μM (P-gp (MDR1, ABCB1); MDCK-MDR1, pH 7.4): 6.99 ×10⁻⁶ cm/s
9 | O=C(NC1CCCOc2c1nn(-c1ccccc1Cl)c2-c1ccc(Cl)cc1)C1CCN(C(=O)c2cccnc2)CC1 (stereo not drawn) [BNS817, N-[2-(2-chlorophenyl)-3-(4-chlorophenyl)-5,6,7,8-tetrahydrooxepino[3,2-c]pyrazol-8-yl]-1-(pyridine-3-carbonyl)piperidine-4-carboxamide] | Inverse Agonist | – | 290 | P-gp substrate (MDR1-MDCKII cells): P-gp substrates and Yes; Rank Papp (MDR1-MDCKII cells): High; efflux ratio at 2.5 h, 2 μM (P-gp (MDR1, ABCB1); [4]): 0.64; Papp at 2.5 h, 2 μM (P-gp (MDR1, ABCB1); MDCK-MDR1, pH 7.4): 8.09 ×10⁻⁶ cm/s; efflux ratio at 2.5 h, 2 μM (P-gp (MDR1, ABCB1); [5]): 1.92; hCB2R Ki (nM) (CB2 receptor): No binding
10 | CNCC(=O)NC1CCCOc2c1nn(-c1ccccc1Cl)c2-c1ccc(Cl)cc1 (stereo not drawn) [BNS819, N-[2-(2-chlorophenyl)-3-(4-chlorophenyl)-5,6,7,8-tetrahydrooxepino[3,2-c]pyrazol-8-yl]-2-(methylamino)acetamide] | – | – | 922 | –
11 | O=C(NC1CCCOc2c1nn(-c1ccccc1Cl)c2-c1ccc(Cl)cc1)[C@H]1CCCN1 (stereo partly drawn) [BNS820, (2R)—N-[2-(2-chlorophenyl)-3-(4-chlorophenyl)-5,6,7,8-tetrahydrooxepino[3,2-c]pyrazol-8-yl]pyrrolidine-2-carboxamide] | – | – | 877 | –
12 | O=C(NC1CCCOc2c1nn(-c1ccccc1Cl)c2-c1ccc(Cl)cc1)[C@@H]1CCCN1 (stereo partly drawn) [BNS821, (2S)—N-[2-(2-chlorophenyl)-3-(4-chlorophenyl)-5,6,7,8-tetrahydrooxepino[3,2-c]pyrazol-8-yl]pyrrolidine-2-carboxamide] | – | – | 1400 | –
13 | CC(C)(Oc1ccc(C(=O)c2ccc(Cl)cc2)cc1)C(=O)NC1CCCOc2c1nn(-c1ccccc1Cl)c2-c1ccc(Cl)cc1 (stereo not drawn) [BNS823, 2-[4-(4-chlorobenzoyl)phenoxy]-N-[2-(2-chlorophenyl)-3-(4-chlorophenyl)-5,6,7,8-tetrahydrooxepino[3,2-c]pyrazol-8-yl]-2-methyl-propanamide] | Antagonist | – | 56.7 | P-gp substrate (MDR1-MDCKII cells): No; Rank Papp (MDR1-MDCKII cells): Low; efflux ratio at 2.5 h, 2 μM (P-gp (MDR1, ABCB1); [4]): > 30.9; Papp at 2.5 h, 2 μM (P-gp (MDR1, ABCB1); MDCK-MDR1, pH 7.4): < 0.003 ×10⁻⁶ cm/s; efflux ratio at 2.5 h, 2 μM (P-gp (MDR1, ABCB1); [5]): > 27.9; hCB2R Ki (nM) (CB2 receptor): No binding
14 | CS(=O)(=O)CC(=O)N1CCC(C(=O)NC2CCCOc3c2nn(-c2ccccc2Cl)c3-c2ccc(Cl)cc2)CC1 (stereo not drawn) [BNS824, N-[2-(2-chlorophenyl)-3-(4-chlorophenyl)-5,6,7,8-tetrahydrooxepino[3,2-c]pyrazol-8-yl]-1-(2-methylsulfonylacetyl)piperidine-4-carboxamide] | – | – | 456 | –
15 | O=C(NC1CCCOc2c1nn(-c1ccccc1Cl)c2-c1ccc(Cl)cc1)C1CCN(S(=O)(=O)c2ccc(Cl)cc2)CC1 (stereo not drawn) [BNS825, N-[2-(2-chlorophenyl)-3-(4-chlorophenyl)-5,6,7,8-tetrahydrooxepino[3,2-c]pyrazol-8-yl]-1-(4-chlorophenyl)sulfonyl-piperidine-4-carboxamide] | Antagonist | 127 | 1.6 | IC50 (HepG2 Cells; Homo sapiens, read-out: Relative IC50): > 100 µM
16 | CN[C@@H]1C[C@H]2O[C@@](C)([C@@H]1OC)n1c3ccccc3c3c4c(c5c6ccccc6n2c5c31)C(=O)NC4 [Staurosporine, reference compound] | – | – | – | IC50 (HepG2 Cells; read-out: Relative IC50): 0.06 µM
